Experimental data published in patent US8426447B2, “Spiro-tricyclic ring compounds as beta-secretase modulators and methods of use” (Amgen Inc., priority 2008, dated 2013).
One block for each molecule: values may come before it.

Tests used:
BACE1 [1] = target: T1, BACE1 (Homo sapiens, UniProt P56817); test: In Vitro Enzymatic BACE FRET (Fluorescence Resonance Energy Transfer) Assay; assay type: biochemical; details: read-out: BACE1 FRET assay
Outline: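 One-hour incubation initiated by 50 nM quenched FRET peptide spanning the BACE cleavage site, in 0.05 M acetate (pH 4.2), 100 uM genapol, 10% DMSO final. Tris addition neutralizes pH to end the reaction before fluorescence measurement.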

BACE1 [2] = target: T1, BACE1; test: In Vitro BACE Cell-based Assay (HEK cell assay): Aβ40 in conditioned medium of cells stably expressing Amyloid Precursor Protein, sandwich ELISA; details: read-out: HEK cell assay
Outline: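 Conditioned medium Aβ40 by ELISA: pAb40 capture 3 h 4° C., biotin-6E10 detection 2 h 4° C., Streptavidin-Europium TRF. IC50 fitted from % control.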

[3] = in vitro BACE FRET enzyme assay, IC50 class symbols
[4] = HEK cell-based assay, Aβ40 in conditioned medium, IC50 class symbols

T1 sequence (P56817 46-501, species assumed): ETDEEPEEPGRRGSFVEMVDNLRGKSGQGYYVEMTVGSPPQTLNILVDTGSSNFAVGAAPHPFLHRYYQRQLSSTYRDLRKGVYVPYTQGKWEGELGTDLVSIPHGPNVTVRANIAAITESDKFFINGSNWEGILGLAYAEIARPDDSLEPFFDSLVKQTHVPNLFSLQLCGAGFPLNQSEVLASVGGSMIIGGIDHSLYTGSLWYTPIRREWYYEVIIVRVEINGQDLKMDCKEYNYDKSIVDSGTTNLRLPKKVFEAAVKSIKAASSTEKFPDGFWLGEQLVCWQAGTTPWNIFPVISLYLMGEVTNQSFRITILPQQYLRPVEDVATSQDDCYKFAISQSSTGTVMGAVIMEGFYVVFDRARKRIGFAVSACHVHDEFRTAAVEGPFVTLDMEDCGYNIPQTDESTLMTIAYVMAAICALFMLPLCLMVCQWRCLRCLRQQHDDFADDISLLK

SMILES: CC1(COc2ccc3c(c2)[C@]2(COC(N)=N2)c2cc(Br)cnc2O3)COC1 [compound 164]
IC50 (BACE1 [1]; Table III, IC50's in uM ranges): 0.1 to 1 µM
IC50 (BACE1 [2]; Table III, IC50's in uM ranges): 1 to 5 µM

SMILES: COCC[C@H]1CN(c2ccc3c(c2)[C@]2(COC(N)=N2)c2cc(-c4cccnc4)ccc2O3)CCO1 [compound 361]
IC50 (BACE1 [1]; [3]): 0.1 to 1 µM
IC50 (BACE1 [2]; [4]): < 0.1 µM

SMILES: CC1(COc2ccc3c(c2)[C@]2(COC(N)=N2)c2cc(C#CC4CC4)ccc2O3)COC1 [compound 197]
IC50 (BACE1 [1]; Table III, IC50's in uM ranges): < 0.1 µM
IC50 (BACE1 [2]; Table III, IC50's in uM ranges): < 0.1 µM

SMILES: CC(C)(O)C#Cc1ccc2c(c1)C1(COC(N)=N1)c1cc(C#CC(C)(C)O)cnc1O2 (centres unmarked) [Example 114, 4,4′-(−2′-aminospiro[chromeno[2,3-b]pyridine-5,4′-[1,3]oxazole]-3,7-diyl)bis(2-methyl-3-butyn-2-ol)]
IC50 (BACE1 [1]; Table III, IC50's in uM ranges): 0.1 to 1 µM
IC50 (BACE1 [2]; Table III, IC50's in uM ranges): 0.1 to 1 µM

SMILES: NC1=N[C@@]2(CO1)c1cc(-c3cccnc3)ccc1Oc1cnc(N3CCN(CC(=O)O)CC3)cc12 [compound 396]
IC50 (BACE1 [1]; [3]): < 0.1 µM
IC50 (BACE1 [2]; [4]): 0.1 to 1 µM

SMILES: NC1=N[C@@]2(CO1)c1cc(-c3cccnc3F)ccc1Oc1c(F)cc(N3C[C@@H]4C[C@H]3CO4)cc12 [compound 416]
IC50 (BACE1 [1]; [3]): < 0.1 µM
IC50 (BACE1 [2]; [4]): < 0.1 µM

SMILES: CCOCC(=O)Nc1ccc2c(c1)[C@@]1(COC(N)=N1)c1cc(OC)ccc1O2 [compound 376]
IC50 (BACE1 [1]; [3]): 0.1 to 1 µM
IC50 (BACE1 [2]; [4]): 0.1 to 1 µM

SMILES: Cc1cncc(-c2ccc3c(c2)[C@@]2(COC(N)=N2)c2cc(C4=CCOCC4)ncc2O3)c1 [compound 326]
IC50 (BACE1 [1]; [3]): < 0.1 µM
IC50 (BACE1 [2]; [4]): < 0.1 µM

SMILES: CC(C)(C)COc1ccc2c(c1)[C@]1(COC(N)=N1)c1cc(-c3ccoc3)ccc1O2 [Example 76, (4S)-2′-(2,2-dimethylpropoxy)-7′-(3-furanyl)spiro[1,3-oxazole-4,9′-xanthen]-2-amine]
IC50 (BACE1 [1]; Table II): < 0.1 µM
IC50 (BACE1 [2]; Table II, Aβ40, 24 h incubation): 1 to 5 µM

SMILES: CC(C)(C#N)COc1cnc2c(c1)[C@]1(COC(N)=N1)c1cc(-c3cccnc3)ccc1O2 [compound 410]
IC50 (BACE1 [1]; [3]): < 0.1 µM
IC50 (BACE1 [2]; [4]): < 0.1 µM

SMILES: CC(C)(C)/C=C/c1cc2c(cn1)Oc1ccc(-c3cccnc3)cc1[C@@]21COC(N)=N1 [compound 397]
IC50 (BACE1 [1]; [3]): < 0.1 µM
IC50 (BACE1 [2]; [4]): < 0.1 µM

SMILES: COc1cc(-c2cc3c(cn2)Oc2ccc(-c4cccnc4F)cc2[C@@]32COC(N)=N2)ccn1 [compound 430]
IC50 (BACE1 [1]): < 0.1 µM
IC50 (BACE1 [2]; HEK cells): 0.1 to 1 µM

SMILES: NC1=N[C@]2(CO1)c1cc(-c3cccnc3)ccc1Oc1ccc(-c3cncnc3)cc12 [Example 124, (R)-2′-(pyridin-3-yl)-7′-(pyrimidin-5-yl)-5H-spiro[oxazole-4,9′-xanthen]-2-amine]
IC50 (BACE1 [1]; Table III, IC50's in uM ranges): < 0.1 µM
IC50 (BACE1 [2]; Table III, IC50's in uM ranges): < 0.1 µM

Next, values leading:

IC50 (BACE1 [1]; Table IV, class symbols): < 0.1 µM
IC50 (BACE1 [2]; Table IV, class symbols): < 0.1 µM
SMILES: CC(C)(C)COc1ccc2c(c1)[C@@]1(COC(N)=N1)c1cc(-c3ccc(F)nc3)cnc1O2 [compound 868]

IC50 (BACE1 [1]; Table IV, class symbols): > 5 µM
IC50 (BACE1 [2]; Table IV, class symbols): > 5 µM
SMILES: NC1=N[C@]2(CO1)c1cc(Br)ccc1Oc1ccc(Cl)nc12 [compound 856]

IC50 (BACE1 [1]): < 0.1 µM
IC50 (BACE1 [2]; HEK cells): < 0.1 µM
SMILES: CC1(C)C=C(c2cc3c(cc2F)Oc2ccc(-c4cncnc4)cc2[C@@]32COC(N)=N2)CCO1 [compound 502]

IC50 (BACE1 [1]; Table IV, class symbols): < 0.1 µM
IC50 (BACE1 [2]; Table IV, class symbols): < 0.1 µM
SMILES: COC1CN(c2ccc3c(c2)[C@]2(COC(N)=N2)c2cc(-c4cccnc4)ccc2O3)C1 [compound 604]

IC50 (BACE1 [1]; Table IV, class symbols): 0.1 to 1 µM
IC50 (BACE1 [2]; Table IV, class symbols): 0.1 to 1 µM
SMILES: COC(=O)CCc1ccc2c(c1)[C@]1(COC(N)=N1)c1cc(-c3cncnc3)ccc1O2 [compound 877]

IC50 (BACE1 [1]): < 0.1 µM
IC50 (BACE1 [2]; HEK cells): < 0.1 µM
SMILES: CC(C)(C)COc1cnc2c(c1)[C@]1(COC(N)=N1)c1cc(-c3ccc(F)nc3)ccc1O2 [compound 470]

IC50 (BACE1 [1]; Table IV, class symbols): 0.1 to 1 µM
IC50 (BACE1 [2]; Table IV, class symbols): 0.1 to 1 µM
SMILES: COc1ccc2c(c1)[C@]1(COC(N)=N1)c1cc(NC(=O)[C@@H](C)OC)ccc1O2 [compound 536]

IC50 (BACE1 [1]; Table IV, class symbols): 1 to 5 µM
IC50 (BACE1 [2]; Table IV, class symbols): > 5 µM
SMILES: CC(C)(C)COc1ccc2c(c1)[C@]1(COC(N)=N1)c1ccccc1O2 [compound 655]

IC50 (BACE1 [1]): > 5 µM
IC50 (BACE1 [2]): > 5 µM
SMILES: COC(C)(C)C#Cc1cnc2c(c1)[C@@]1(COC(N)=N1)c1cc(-c3ccncc3)ccc1O2 [compound 692]

IC50 (BACE1 [1]): 0.1 to 1 µM
IC50 (BACE1 [2]): 1 to 5 µM
SMILES: CC(C)(C)COc1ccc2c(c1)[C@@]1(COC(N)=N1)c1cc(C(=O)N3CCCC3)ccc1O2 [compound 992]

IC50 (BACE1 [1]; Table IV, class symbols): < 0.1 µM
IC50 (BACE1 [2]; Table IV, class symbols): < 0.1 µM
SMILES: NC1=N[C@@]2(CO1)c1cc(-c3cccnc3)ccc1Oc1ccc(N3C[C@@H]4C[C@H]3CO4)cc12 [compound 564]

IC50 (BACE1 [1]): < 0.1 µM
IC50 (BACE1 [2]): 0.1 to 1 µM
SMILES: N#Cc1ccccc1-c1ccc2c(c1)[C@]1(COC(N)=N1)c1cc(-c3cccnc3)ccc1O2 [compound 962]
